Test results: patent US20070298026A1, “Methods for Identifying Treatment and Inducing Infertility Using Smc1-Beta” (MOUNT SINAI SCHOOL OF MEDICINE Office of Industrial Liaison, priority 2003, published 2007)
“Also recorded” adds a separate entry of the source.

Legend:
[1] = tested on: SMC1β; assay: SMC1β proteolysis/degradation assay in testis nuclear extracts (immunoblot); format: biochemical, mouse; details: for effect of added SMC1β protein fragment on degradation of SMC1β: increasing amounts of fragment added to testis nuclear extract, anti-SMC1β immunoblot
Text: It is very likely, that phosphorylation and/or protein degradation play an important role in regulating the removal of SMC1β and its complex from meiotic chromosomes. Understanding this mechanism would fill a significant gap in our knowledge of the meiotic process and of regulation of SMC1β function. It is unlikely that association and dissociation of cohesins are regulated exclusively through Rec8, because Rec8 behaves differently from SMC1β and SMC3 (Eijpe et al., J. Cell Biol. 160:657-670,2003; and see below). As a first approach to address this question, a series of proteolysis assays were undertaken. In these assays, nuclear extracts from mouse testis were incubated under various conditions and investigated the intactness of SMC1β by immunoblotting.
To begin testing the effect of phosphorylation, nuclear extracts were prepared in the presence or absence of general phosphatase inhibitors (1 mM o-vanadate, 10 mM β-glycerophosphate). If a phosphorylated SMC1β is more prone to degradation, inhibited dephosphorylation should stimulate degradation. […] The effect of phosphatase inhibition can either be direct—on SMC1β phosphorylation—or indirect, i.e. on maintaining an activated state of the protease or of a regulator of the protease. The mechanism of phosphatase inhibition and the identification of enzymes that are involved are currently being examined.
Speculating that the 120-kDa product seen in degradation assays is a true intermediate of SMC1β degradation, two fragments of SMC1β that span either one of the two putative regions of cleavage, positioned at about 30 kDa distance from each of the termini, were subcloned and expressed in E. coli. Thus, an N-terminal or a C-terminal polypeptide of 33 or 35 kDa, respectively, was expressed and purified. While the N-terminal fragment was purified to near homogeneity (100 mM imidazole fraction), there were one major and a few minor contaminants in the C-terminal fragment preparation. The putative region of cleavage was identified at the center of these polypeptides (N-terminal fragment: amino acids 174 to 420; C-terminal fragment: amino acids 820 to 1073). These proteins were used in cleavage inhibition assays. […] Thus, there is early evidence for a cleavage site within the N-terminal region between amino acids 174 and 420, and the precise cleavage site is being determined.
In attempts to identify the protease cleavage site within SMC1β, N-terminal and C-terminal protein fragments of SMC1β were purified in increasing concentrations of imidazole in elution buffer and run on silver-stained SDS polyacrylamide gels. To assay degradation, increasing amounts of N- or C-terminal protein fragments were then added to a reaction containing extract incubated with and without competitor. Reactions were then separated eletrophoretically on SDS polyacrylamide gels, immunoblotted, and probed with anti-SMC1β antibody. […] Cleavage of the N-terminal fragment itself is currently being investigated.

[2] = tested on: Rec8 or STAG3; assay: Degradation of other cohesin subunits in testis nuclear extracts; format: biochemical, mouse; details: ATP added to testis nuclear extract
[3] = target: T1, human PEP (Homo sapiens, UniProt P48147); details: inhibitor from Calbiochem Inc.; cited from earlier work
T1 sequence (P48147 1-710): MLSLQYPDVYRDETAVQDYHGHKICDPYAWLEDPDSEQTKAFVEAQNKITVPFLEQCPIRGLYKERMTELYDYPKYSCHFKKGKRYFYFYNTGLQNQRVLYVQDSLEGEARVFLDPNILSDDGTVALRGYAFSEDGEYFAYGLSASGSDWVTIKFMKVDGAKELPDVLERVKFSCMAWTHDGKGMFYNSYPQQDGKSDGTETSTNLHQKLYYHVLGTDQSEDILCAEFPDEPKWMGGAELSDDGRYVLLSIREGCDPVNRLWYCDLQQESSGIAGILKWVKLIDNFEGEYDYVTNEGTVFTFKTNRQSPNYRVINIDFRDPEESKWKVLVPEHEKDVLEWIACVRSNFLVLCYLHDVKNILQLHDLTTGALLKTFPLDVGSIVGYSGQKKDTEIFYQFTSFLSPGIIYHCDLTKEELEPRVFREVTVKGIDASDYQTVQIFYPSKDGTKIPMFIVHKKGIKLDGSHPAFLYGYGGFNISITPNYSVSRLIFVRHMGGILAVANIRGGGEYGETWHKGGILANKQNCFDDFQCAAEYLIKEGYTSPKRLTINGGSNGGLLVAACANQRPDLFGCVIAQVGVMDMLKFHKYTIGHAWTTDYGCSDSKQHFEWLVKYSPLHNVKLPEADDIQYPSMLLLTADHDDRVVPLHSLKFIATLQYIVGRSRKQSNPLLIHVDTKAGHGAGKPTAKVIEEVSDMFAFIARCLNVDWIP

[4] = tested on: spermatocytes; assay: Okadaic acid-induced premature transition of cultured spermatocytes into metaphase I; format: cell-based; details: wildtype mouse spermatocytes; 5 μM okadaic acid for 5 h
Text: As a result, 20 bivalents, each with two pairs of unseparated, closely apposed sister kinetochores and at least one chiasma became visible. […] Co-staining for γ-H2AX, which decreases from zygotene to pachytene, allowed for determination of the stage at which the cells were exposed to OA. Cells with 80 centromere signals were of pachytene origin (no γ-H2AX), and cells with 40 centromere signals were of zygotene origin (patchy γ-H2AX).
Most antibodies used have been described (Eijpe et al., supra, 2000; Revenkova et al., supra, 2001; and 14. Eijpe et al., J. Cell Biol. 3,.657-670, 2003). Mouse anti-MLH1 was from BDPharMingen, rabbit-antiMLH1 from Calbiochem, and rabbit anti-SMC1α from Bethyl Labs Inc. Mouse anti-γH2AX was donated by A. Pastink, rabbit anti-SMC3 by J. -M. Peters, rabbit anti-RAP1 by T. de Lange, mouse anti-ATR by P. de Boer, mouse anti-MLH3 by P. Cohen, and goat anti-rat SCP3 by T. Ashley. Paraffin and frozen sections of mouse testis, and dry-down preparations of testis cell suspensions were prepared, incubated for immunocytochemistry and analyzed as described (Eijpe et al., supra, 2000;, Revenkova et al., supra, 2001; Eijpe et al., J. Cell Biol. 3, 657-670, 2003; Peters et al., Chromosome Res. 5:66-68, 1997). Mice were labeled in vivo with BrdU, and detected -the incorporated BrdU in sections and dry-down preparations as described before (Eijpe et al, supra, 2003). […]

[5] = tested on: type A spermatogonial cells; details: cited from earlier work

With `Nc1ncnc2c1ncn2[C@@H]1O[C@H](COP(=O)(O)OP(=O)(O)OP(=O)(O)O)[C@@H](O)[C@H]1O` [ATP] the “effect of ATP on SMC1β degradation” value ([1]; ATP added to testis nuclear extract) was “increased the efficiency of the reaction; also recorded: stimulates SMC1β degradation” and the “effect of ATP on degradation of Rec8 or STAG3” value [2] was “not enhanced by addition of ATP, but rather inhibited”.

For `CC(C)(C)OC(=O)NC(CCC(=O)NOC(=O)c1ccccc1)C(=O)N1CCCC1` (stereo not shown) [Boc-Glu(NHO-Bz)-Pyr], the Ki [3] is listed as 30 nM.

For `C=C1[C@@H](O)[C@@H]2O[C@]3(CC[C@H](/C=C/[C@@H](C)[C@@H]4CC(C)=C[C@@]5(O[C@H](C[C@@](C)(O)C(=O)O)CC[C@H]5O)O4)O3)CC[C@H]2O[C@@H]1[C@@H](O)C[C@H](C)[C@H]1O[C@@]2(CCCCO2)CC[C@H]1C` [OA, okadaic acid], the “effect on chromosome condensation and cohesion” value [4] was “caused premature chromosome condensation from mid-pachytene on, without affecting sister chromatid arm and centromere cohesion”.

For “stem cell factor: stem cell factor (SCF; kit ligand) added to induce meiosis in spermatogonial cultures”, the “cells that are 4N” value ([5]; after 1 week of induction) is given as 40% and the “total cell population that is haploid” value ([5]; after 3 weeks of induction) is given as 58%.

B1: C-terminal protein: SMC1β C-terminal fragment, amino acids 820 to 1073, 35 kDa polypeptide expressed in E. coli (protein, UniProt Q8NDV3 820-1073, looked up, fragment)
chain: QLEYSRSHLKKKLNKINTLKETIQKGSEDIDHLKKAEENCLQTVNELMAKQQQLKDIRVTQNSSAEKVQTQIEEERKKFLAVDREVGKLQKEVVSIQTSLEQKRLEKHNLLLDCKVQDIEIILLSGSLDDIIEVEMGTEAESTQATIDIYEKEEAFEIDYSSLKEDLKALQSDQEIEAHLRLLLQQVASQEDILLKTAAPNLRALENLKTVRDKFQESTDAFEASRKEARLCRQEFEQVKKRRYDLFTQCFEHV
With B1 the “effect of added SMC1β protein fragment on degradation of SMC1β” value (“effect of added SMC1β protein fragment” for short) [1] was “degradation was not affected”.

B2: N-terminal protein: SMC1β N-terminal fragment, amino acids 174 to 420, 33 kDa polypeptide expressed in E. coli (protein, UniProt Q8NDV3 174-420, looked up, fragment)
chain: KLQKAEEDAQFNFNKKKNIAAERRQAKLEKEEAERYQSLLEELKMNKIQLQLFQLYHNEKKIHLLNTKLEHVNRDLSVKRESLSHHENIVKARKKEHGMLTRQLQQTEKELKSVETLLNQKRPQYIKAKENTSHHLKKLDVAKKSIKDSEKQCSKQEDDIKALETELADLDAAWRSFEKQIEEEILHKKRDIELEASQLDRYKELKEQVRKKVATMTQQLEKLQWEQKTDEERLAFEKRRHGEVQGN
With B2 the “effect of added SMC1β protein fragment” value [1] was “inhibited the degradation of SMC1β”, the “effect of added SMC1β protein fragment” value ([1]; listed as N-terminal 33-kDa fragment) was “identified as an inhibitor to protease cleavage” and the “effect of added SMC1β protein fragment” value ([1]; listed as N-terminal peptide of SMC1β) was “inhibited specifically”.
